This note sets out measurements from patent publication US20250223268A1, “4-Methylsulfonylbenzamide Compound, Preparation Method, Herbicidal Composition And Use” (Jiangsu Flag Chemical Industry Co., Ltd., priority 2022, published 2025).

The first series deals with Digitaria sanguinalis. Kind of series: Greenhouse herbicidal activity assay, post-emergence. The class given is in vivo. Particulars: Digitaria sanguinalis; Post-emergence test, rate 150 g a.i./hm^2; grade by fresh weight inhibition rate; read-out: Control efficacy grade, Digitaria sanguinalis. Put shortly: (§1)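 Weeds were sown in nutrient soil in 7 cm pots and grown in a growth chamber to the 3-6 leaf stage, then foliar-sprayed, air-dried and returned to the chamber. Fresh weight inhibition was scored 14-21 days later in bands from A (≥80% to 100%) to E (<20%).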
On to `CCCS(=O)(=O)c1c(S(C)(=O)=O)ccc(C(=O)Nc2nnco2)c1Cl` [Compound 3-271, 2-chloro-4-(methylsulfonyl)-N-(1,3,4-oxadiazol-2-yl)-3-(propylsulfonyl)benzamide], for which the pest or weed control at 150 g/ha is 80 to 100%.

Still in this series, the particulars now being: Post-emergence test, rate 150 g a.i./hm^2; grade by fresh weight inhibition rate.
Turning to `Cc1nnc(NC(=O)c2ccc(S(C)(=O)=O)c(S(=O)(=O)C3CCCC3)c2Cl)o1` [Compound 3-91], the “Control efficacy grade, Digitaria sanguinalis” value is given as “A (Fresh weight inhibition rate≥80% to 100%)”.

Turning to `Cc1nnc(NC(=O)c2ccc(S(C)(=O)=O)c(S(=O)(=O)CC(F)(F)F)c2Cl)o1` [Compound 3-101], the “Control efficacy grade, Digitaria sanguinalis” value was “A (Fresh weight inhibition rate≥80% to 100%)”.

With `C=CCS(=O)(=O)c1c(S(C)(=O)=O)ccc(C(=O)Nc2nnc(C)o2)c1Cl` [Compound 3-116], the “Control efficacy grade, Digitaria sanguinalis” value is reported as “A (Fresh weight inhibition rate≥80% to 100%)”.

For another series, the system named is Eclipta prostrata. Described as above. Type of series: in vivo. Particulars: Eclipta prostrata; Post-emergence test, rate 150 g a.i./hm^2; grade by fresh weight inhibition rate; read-out: Control efficacy grade, Eclipta prostrata. In outline:
as §1
With `CCCS(=O)(=O)c1c(S(C)(=O)=O)ccc(C(=O)Nc2nnco2)c1Cl` [Compound 3-271, 2-chloro-4-(methylsulfonyl)-N-(1,3,4-oxadiazol-2-yl)-3-(propylsulfonyl)benzamide], the pest or weed control at 150 g/ha was 80 to 100%.

Staying with this series, now noted: Post-emergence test, rate 150 g a.i./hm^2; grade by fresh weight inhibition rate.
As to `Cc1nnc(NC(=O)c2ccc(S(C)(=O)=O)c(S(=O)(=O)C3CCCC3)c2Cl)o1` [Compound 3-91], the “Control efficacy grade, Eclipta prostrata” value is “A (Fresh weight inhibition rate≥80% to 100%)”.

`Cc1nnc(NC(=O)c2ccc(S(C)(=O)=O)c(S(=O)(=O)CC(F)(F)F)c2Cl)o1` [Compound 3-101]: the “Control efficacy grade, Eclipta prostrata” value is listed as “A (Fresh weight inhibition rate≥80% to 100%)”.

`C=CCS(=O)(=O)c1c(S(C)(=O)=O)ccc(C(=O)Nc2nnc(C)o2)c1Cl` [Compound 3-116]: the “Control efficacy grade, Eclipta prostrata” value was “A (Fresh weight inhibition rate≥80% to 100%)”.

The next series deals with Leptochloa chinensis. Described as above. The class given is in vivo. Particulars: Dinebra chinensis; Post-emergence test, rate 150 g a.i./hm^2; grade by fresh weight inhibition rate; read-out: Control efficacy grade, Leptochloa chinensis. Put shortly: as §1
In the case of `CCCS(=O)(=O)c1c(S(C)(=O)=O)ccc(C(=O)Nc2nnco2)c1Cl` [Compound 3-271, 2-chloro-4-(methylsulfonyl)-N-(1,3,4-oxadiazol-2-yl)-3-(propylsulfonyl)benzamide], the pest or weed control at 150 g/ha fell in the range of 80 to 100%.

The series is the same for the next values; noted with them: Post-emergence test, rate 150 g a.i./hm^2; grade by fresh weight inhibition rate.
Turning to `Cc1nnc(NC(=O)c2ccc(S(C)(=O)=O)c(S(=O)(=O)C3CCCC3)c2Cl)o1` [Compound 3-91], the “Control efficacy grade, Leptochloa chinensis” value is recorded as “A (Fresh weight inhibition rate≥80% to 100%)”.

On to `Cc1nnc(NC(=O)c2ccc(S(C)(=O)=O)c(S(=O)(=O)CC(F)(F)F)c2Cl)o1` [Compound 3-101], for which the “Control efficacy grade, Leptochloa chinensis” value is reported as “A (Fresh weight inhibition rate≥80% to 100%)”.

Turning to `C=CCS(=O)(=O)c1c(S(C)(=O)=O)ccc(C(=O)Nc2nnc(C)o2)c1Cl` [Compound 3-116], the “Control efficacy grade, Leptochloa chinensis” value is recorded as “A (Fresh weight inhibition rate≥80% to 100%)”.

For a further series, the system named is Echinochloa crusgalli. The series is described as above. Particulars: Echinochloa crus-galli; Post-emergence test, rate 150 g a.i./hm^2; grade by fresh weight inhibition rate; read-out: Control efficacy grade, Echinochloa crusgalli. Type of series: in vivo. In outline: as §1
In the case of `CCCS(=O)(=O)c1c(S(C)(=O)=O)ccc(C(=O)Nc2nnco2)c1Cl` [Compound 3-271, 2-chloro-4-(methylsulfonyl)-N-(1,3,4-oxadiazol-2-yl)-3-(propylsulfonyl)benzamide], the pest or weed control at 150 g/ha lay within 80 to 100%.

Still in this series, the particulars now being: Post-emergence test, rate 150 g a.i./hm^2; grade by fresh weight inhibition rate.
As for `Cc1nnc(NC(=O)c2ccc(S(C)(=O)=O)c(S(=O)(=O)C3CCCC3)c2Cl)o1` [Compound 3-91], the “Control efficacy grade, Echinochloa crusgalli” value is “A (Fresh weight inhibition rate≥80% to 100%)”.

As to `Cc1nnc(NC(=O)c2ccc(S(C)(=O)=O)c(S(=O)(=O)CC(F)(F)F)c2Cl)o1` [Compound 3-101], the “Control efficacy grade, Echinochloa crusgalli” value is “A (Fresh weight inhibition rate≥80% to 100%)”.

Consider `C=CCS(=O)(=O)c1c(S(C)(=O)=O)ccc(C(=O)Nc2nnc(C)o2)c1Cl` [Compound 3-116], for which the “Control efficacy grade, Echinochloa crusgalli” value was “A (Fresh weight inhibition rate≥80% to 100%)”.

The subject of another series is Cyperus iria. The series is described as above. The note with it: Cyperus iria; Post-emergence test, rate 150 g a.i./hm^2; grade by fresh weight inhibition rate; read-out: Control efficacy grade, Cyperus iria. Type of series: in vivo. In outline: as §1
Consider `CCCS(=O)(=O)c1c(S(C)(=O)=O)ccc(C(=O)Nc2nnco2)c1Cl` [Compound 3-271, 2-chloro-4-(methylsulfonyl)-N-(1,3,4-oxadiazol-2-yl)-3-(propylsulfonyl)benzamide], for which the pest or weed control at 150 g/ha was 80 to 100%.

Still in this series, the particulars now being: Post-emergence test, rate 150 g a.i./hm^2; grade by fresh weight inhibition rate.
For the compound `Cc1nnc(NC(=O)c2ccc(S(C)(=O)=O)c(S(=O)(=O)C3CCCC3)c2Cl)o1` [Compound 3-91], the “Control efficacy grade, Cyperus iria” value was “A (Fresh weight inhibition rate≥80% to 100%)”.

In the case of `Cc1nnc(NC(=O)c2ccc(S(C)(=O)=O)c(S(=O)(=O)CC(F)(F)F)c2Cl)o1` [Compound 3-101], the “Control efficacy grade, Cyperus iria” value was “A (Fresh weight inhibition rate≥80% to 100%)”.

`C=CCS(=O)(=O)c1c(S(C)(=O)=O)ccc(C(=O)Nc2nnc(C)o2)c1Cl` [Compound 3-116]: the “Control efficacy grade, Cyperus iria” value is on record as “C (Fresh weight inhibition rate≥40% to <60%)”.

A further series concerns Oryza sativa subsp. japonica. In words: Greenhouse herbicidal activity and crop safety comparison (Test Example 2). Type of series: in vivo. The note with it: Rate 150 g/ha. In outline:
(§2)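 Fresh weight inhibition, banded into grades A to E (E <20%), was rated 14-21 days after foliar spraying of 3-6 leaf plants, or 14-30 days after a soil spray applied 24 h post-sowing.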
Consider `Cc1nnc(NC(=O)c2ccc(S(C)(=O)=O)c(S(=O)(=O)C3CCCC3)c2Cl)o1` [Compound 3-91], for which the “Oryza sativa subsp. japonica, grading of fresh weight inhibition rate (crop safety)” value is “E (Fresh weight inhibition rate<20%)”.

With `Cc1nnc(NC(=O)c2ccc(S(C)(=O)=O)c(S(=O)(=O)CC(F)(F)F)c2Cl)o1` [Compound 3-101], the “Oryza sativa subsp. japonica, grading of fresh weight inhibition rate (crop safety)” value is “E (Fresh weight inhibition rate<20%)”.

With `C=CCS(=O)(=O)c1c(S(C)(=O)=O)ccc(C(=O)Nc2nnc(C)o2)c1Cl` [Compound 3-116], the “Oryza sativa subsp. japonica, grading of fresh weight inhibition rate (crop safety)” value was “E (Fresh weight inhibition rate<20%)”.

Take `CCCS(=O)(=O)c1c(S(C)(=O)=O)ccc(C(=O)Nc2nnco2)c1Cl` [Compound 3-271, 2-chloro-4-(methylsulfonyl)-N-(1,3,4-oxadiazol-2-yl)-3-(propylsulfonyl)benzamide]: the “Oryza sativa subsp. japonica, grading of fresh weight inhibition rate (crop safety)” value was “E (Fresh weight inhibition rate<20%)”.

A further series concerns Oryza sativa subsp. indica. The description is as above. The class given is in vivo. The note with it: Rate 150 g/ha. In outline: as §2
On to `Cc1nnc(NC(=O)c2ccc(S(C)(=O)=O)c(S(=O)(=O)C3CCCC3)c2Cl)o1` [Compound 3-91], for which the “Oryza sativa subsp. indica, grading of fresh weight inhibition rate (crop safety)” value was “E (Fresh weight inhibition rate<20%)”.

Consider `Cc1nnc(NC(=O)c2ccc(S(C)(=O)=O)c(S(=O)(=O)CC(F)(F)F)c2Cl)o1` [Compound 3-101], for which the “Oryza sativa subsp. indica, grading of fresh weight inhibition rate (crop safety)” value is “E (Fresh weight inhibition rate<20%)”.

With `C=CCS(=O)(=O)c1c(S(C)(=O)=O)ccc(C(=O)Nc2nnc(C)o2)c1Cl` [Compound 3-116], the “Oryza sativa subsp. indica, grading of fresh weight inhibition rate (crop safety)” value is “E (Fresh weight inhibition rate<20%)”.

As for `CCCS(=O)(=O)c1c(S(C)(=O)=O)ccc(C(=O)Nc2nnco2)c1Cl` [Compound 3-271, 2-chloro-4-(methylsulfonyl)-N-(1,3,4-oxadiazol-2-yl)-3-(propylsulfonyl)benzamide], the “Oryza sativa subsp. indica, grading of fresh weight inhibition rate (crop safety)” value is “E (Fresh weight inhibition rate<20%)”.

For a further series, the system named is Leptochloa chinensis. The series is described as above. The class given is in vivo. Particulars: Dinebra chinensis; Rate 150 g/ha; read-out: Leptochloa chinensis, control efficacy grading (fresh weight inhibition rate). In outline: as §2
As to `CCCS(=O)(=O)c1c(S(C)(=O)=O)ccc(C(=O)Nc2nnco2)c1Cl` [Compound 3-271, 2-chloro-4-(methylsulfonyl)-N-(1,3,4-oxadiazol-2-yl)-3-(propylsulfonyl)benzamide], the inhibition (as a rule, the percentage by which the read-out fell short of the control) at 150 g/ha was in the range of 80 to 100%.

The series is the same for the next values; noted with them: Rate 150 g/ha.
For `Cc1nnc(NC(=O)c2ccc(S(C)(=O)=O)c(S(=O)(=O)C3CCCC3)c2Cl)o1` [Compound 3-91], the “Leptochloa chinensis, control efficacy grading (fresh weight inhibition rate)” value was “A (Fresh weight inhibition rate≥80% to 100%)”.

On to `Cc1nnc(NC(=O)c2ccc(S(C)(=O)=O)c(S(=O)(=O)CC(F)(F)F)c2Cl)o1` [Compound 3-101], for which the “Leptochloa chinensis, control efficacy grading (fresh weight inhibition rate)” value is “A (Fresh weight inhibition rate≥80% to 100%)”.

Take `C=CCS(=O)(=O)c1c(S(C)(=O)=O)ccc(C(=O)Nc2nnc(C)o2)c1Cl` [Compound 3-116]: the “Leptochloa chinensis, control efficacy grading (fresh weight inhibition rate)” value is “A (Fresh weight inhibition rate≥80% to 100%)”.

In another series the test system is Echinochloa crusgalli. The series is described as above. Type of series: in vivo. The note with it: Echinochloa crus-galli; Rate 150 g/ha; read-out: Echinochloa crusgalli, control efficacy grading (fresh weight inhibition rate). Put shortly: as §2
With `CCCS(=O)(=O)c1c(S(C)(=O)=O)ccc(C(=O)Nc2nnco2)c1Cl` [Compound 3-271, 2-chloro-4-(methylsulfonyl)-N-(1,3,4-oxadiazol-2-yl)-3-(propylsulfonyl)benzamide], the inhibition at 150 g/ha lay in the range of 80 to 100%.

Still in this series, the particulars now being: Rate 150 g/ha.
`Cc1nnc(NC(=O)c2ccc(S(C)(=O)=O)c(S(=O)(=O)C3CCCC3)c2Cl)o1` [Compound 3-91]: the “Echinochloa crusgalli, control efficacy grading (fresh weight inhibition rate)” value is on record as “A (Fresh weight inhibition rate≥80% to 100%)”.

With `Cc1nnc(NC(=O)c2ccc(S(C)(=O)=O)c(S(=O)(=O)CC(F)(F)F)c2Cl)o1` [Compound 3-101], the “Echinochloa crusgalli, control efficacy grading (fresh weight inhibition rate)” value is reported as “A (Fresh weight inhibition rate≥80% to 100%)”.

With `C=CCS(=O)(=O)c1c(S(C)(=O)=O)ccc(C(=O)Nc2nnc(C)o2)c1Cl` [Compound 3-116], the “Echinochloa crusgalli, control efficacy grading (fresh weight inhibition rate)” value is given as “A (Fresh weight inhibition rate≥80% to 100%)”.
